The term kinact/KI denotes the maximal inactivation rate divided by the concentration that gives half of it.

Experimental findings from paper PMC12668310, “High‐Throughput Synthesis and Screening of a Cyanimide Library Identifies Selective Inhibitors of ISG15‐Specific Protease mUSP18” (Angewandte Chemie (International Ed. in English), 2025) are described below.

In assay [1] the target is T1, mUSP18 (Mus musculus, UniProt Q9WTV6).
T1 construct: (46-368); His-tag (N); made in house
T1 sequence (Q9WTV6 46-368): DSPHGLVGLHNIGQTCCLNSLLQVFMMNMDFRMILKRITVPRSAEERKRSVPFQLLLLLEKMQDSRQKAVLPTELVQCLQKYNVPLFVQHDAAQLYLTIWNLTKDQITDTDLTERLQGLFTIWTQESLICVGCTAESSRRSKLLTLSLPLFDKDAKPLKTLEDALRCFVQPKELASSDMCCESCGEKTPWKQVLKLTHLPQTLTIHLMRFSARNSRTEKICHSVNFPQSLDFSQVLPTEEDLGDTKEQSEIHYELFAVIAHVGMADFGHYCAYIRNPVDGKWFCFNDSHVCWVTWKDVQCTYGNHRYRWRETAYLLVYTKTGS
The experiment in a line: kinact/KI determination (kobs plot). The format is biochemical, murine.

Assay [2] has as its target T1, mUSP18. Description: Covalent complex formation, intact protein mass spectrometry. Type of assay: binding, murine. The following applies: 1.4 μM mUSP18, 14 µM compound, 30 min. Here is the method: We further explored the potential of our mUSP18 hits. […] Based on previous data, these cyanimides likely bind to mUSP18 in a covalent manner. Indeed, intact protein mass spectrometry analysis confirmed the formation of a covalent stoichiometric mUSP18‐BB07CA902 complex, showing a mass difference of 311 Da, which corresponds to the addition of exactly one molecule of BB07CA902 (Figures 5c, S9). […] (Figure S9).
High-throughput screening
The screens were performed at room temperature in “flat bottom, non-treated, black […]
µM. The compounds (10 nL each) were transferred from the 1 mM daughter plates to the […]
Four wells containing DMSO
(10 nL) and four wells containing NEM (10 mM final concentration) were used in each plate […]
The percentage inhibition was calculated for each well using the […]
Where FIx is the fluorescence intensity of each well, FIpos is the average fluorescence intensity of the positive (NEM) control wells, and FIneg is the average fluorescence intensity of the negative (DMSO) control wells. […]
Samples were then diluted 3-fold with water and analyzed by mass spectrometry by injecting 2 μL into a Waters XEVO-G2 XS Q-TOF mass spectrometer equipped with an electrospray ion source in positive mode (capillary voltage 1.2 kV, desolvation gas flow 900 L/h, T = 60 °C) with a resolution of R = 26,000. […]

The target in assay [3] is T2, human USP18/ISG15 interaction (Homo sapiens, UniProt Q9UMW8).
T2 sequence (Q9UMW8 1-372): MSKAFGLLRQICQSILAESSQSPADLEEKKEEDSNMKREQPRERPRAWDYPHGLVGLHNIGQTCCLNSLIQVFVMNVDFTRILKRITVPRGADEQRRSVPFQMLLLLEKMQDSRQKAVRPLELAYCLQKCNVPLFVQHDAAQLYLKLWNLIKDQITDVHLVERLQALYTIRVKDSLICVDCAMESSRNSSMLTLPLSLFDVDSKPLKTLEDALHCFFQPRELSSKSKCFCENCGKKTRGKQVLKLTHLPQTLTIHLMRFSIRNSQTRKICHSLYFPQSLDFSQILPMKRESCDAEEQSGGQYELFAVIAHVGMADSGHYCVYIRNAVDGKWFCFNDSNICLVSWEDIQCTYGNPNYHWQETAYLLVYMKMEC
The experiment in a line: NanoBRET assay, hUSP18/ISG15 interaction in HEK293T cells. A general note: BRET reads energy transfer from a luciferase to a nearby fluorophore.
Description: We tested whether our USP18 activity inhibitor could also affect USP18's nonenzymatic function using our recently developed NanoBRET assay to monitor the interactions of USP18 with STAT2 and ISG15.^[ [43] ^]
normalised to the DMSO control and inhibition was assessed by fitting the data to a dose-
Data are shown as mean ± SD from one biological replicate with
three technical replicates.
Transient NanoBRET assays were performed
following the manufacturer’s instructions (Promega). Briefly, HEK293T cells were transfected
with NanoLuc and HaloTag fusion vectors at 1:100 ratio (20 ng NanoLuc and 2 µg HaloTag
plasmid). After approx. 20 h, cells were harvested, resuspended in phenol red–free Opti-MEM
media supplemented with 4% FCS, and plated in white, flat-bottom, 96-well tissue culture
Immediately before signal detection,
NanoBRET Nano-Glo substrate (Promega) was added, and luminescence was recorded using
nm (HaloTag acceptor). The corrected NanoBRET ratio (mBU) was calculated by dividing the
acceptor signal by the donor signal and subtracting the background signal obtained from the

Turning to `Cc1cc(C(=O)N[C@H]2C[C@@H]3CN(C#N)C[C@@H]3C2)ccc1C(C)C` [BB07CA902], in assay [1], the second-order inactivation constant (kinact/KI) came to 4650 M⁻¹ s⁻¹. Also, the “mass difference of covalent stoichiometric mUSP18-inhibitor complex” value in assay [2] was 311 Da. In addition, the “inhibition of hUSP18/ISG15 interaction” value in assay [3] is “did not observe any inhibition”.
